Where a SMILES comes first, the peptide text is derived from it. The star is where a group is joined. Cbz = O=C(OCc1ccccc1)*
What was measured:
TRIB3 protein = target: T1, TRIB3 protein (Homo sapiens, UniProt Q96RU7); assay: SPR kinetic interaction of α-helical peptides (CM1-CM4) with TRIB3; type: binding; conditions: result in words
T1 construct: GST; purchased Sinobiological Inc. 10731-H09B
T1 sequence (Q96RU7 1-358): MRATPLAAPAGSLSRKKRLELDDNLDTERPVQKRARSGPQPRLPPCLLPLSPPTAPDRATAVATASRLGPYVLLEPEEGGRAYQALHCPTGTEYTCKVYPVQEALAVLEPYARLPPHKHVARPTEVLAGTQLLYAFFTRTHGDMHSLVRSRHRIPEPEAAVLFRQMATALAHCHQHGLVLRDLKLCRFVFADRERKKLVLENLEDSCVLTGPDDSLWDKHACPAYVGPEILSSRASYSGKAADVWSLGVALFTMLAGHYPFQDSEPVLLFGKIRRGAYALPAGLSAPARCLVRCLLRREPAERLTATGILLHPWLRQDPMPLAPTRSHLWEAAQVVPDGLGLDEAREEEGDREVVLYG
Method: (§1) Binding kinetics between MYC and UBE3B, TRIB3 and the indicated α helical peptides, MAX and the indicated α helical peptides, or MYC and MAX were analyzed using a BIAcore T200 instrument (GE Healthcare, CA, USA) as described previously. Briefly, binding reactions were performed in HBS-EP buffer (GE Healthcare) at pH 7.4. TRIB3/MYC/MAX protein was coated on the flow cell of a CM5 sensor chip by direct immobilization. Another flow cell, not coated with an immobilized protein, was used to evaluate nonspecific binding. The binding analyses were performed at a flow rate of 25 μl/min at 25 °C. A total of 0–200 nM peptide or 0–500 nM TRIB3 protein was passed over the surface of the sensor chip. The association rate constant (Ka) and the dissociation rate constant (Kd) were calculated according to the BIA evaluation software. The dissociation constant (KD) was determined by Kd/Ka.

MAX protein = assay: SPR kinetic interaction of α-helical peptides (CM1-CM4) with MAX; type: binding; conditions: result in words
Method: as §1

MAX and MYC = assay: SPR kinetic interaction of MAX and MYC proteins with indicated peptides (CM1-CM4); type: binding; conditions: result in words
Method: as §1

[1] = tested on: Myc^EμCre^ERT2Trib3^F/+ mice; assay: Survival of Myc^EμCre^ERT2Trib3^F/+ mice treated with vehicle or tamoxifen (induced Trib3 deletion); type: in vivo, mouse
Source text: NOD-scid IL2Rg^null (NSG) mice (4–6 weeks old, male) were purchased from the Nanjing Biomedical Research Institute of Nanjing University (Nanjing, China). Trib3-knockout (Trib3^loxP/loxP, Trib3^F/F) mice (5–6 weeks old, male) were generated as described in our previous study (Li et al.[18]). Cre^ERT2 (B6. Cg-Tg(CAG-cre/Esr1*)5Amc/J) mice (5–6 weeks old, 1 male and 2 females) (The Jackson Laboratory, 004682) were obtained from The Jackson Laboratory (CA, USA). When Cre^ERT2 transgenic mice bred with mice containing loxP-flanked sequences, tamoxifen-inducible Cre-mediated recombination results in deletion of the floxed sequences in widespread cells/tissues of the offspring. Cre^Lck (B6. Cg-Tg(Lck-cre)548Jxm/J) mice (5–6 weeks old, 1 male and 2 females; The Jackson Laboratory, 003802), and Cre^CD19 (B6.129P2(C)-Cd19tm1(cre)Cgn/J) mice (5–6 weeks old, 1 male and 2 females; The Jackson Laboratory, 006785) were obtained from the Shanghai Research Center for Model Organisms (Shanghai, China). B6.129P2-Lyz2tm1(cre)/Nju (LysM-Cre) mice(5–6 weeks old, 1 male and 2 females; N000056) were obtained from Model Animal Resource Information Platform. […] Deletion of Trib3 was corroborated by quantitative PCR and immunoblot analysis. […]

[2] = tested on: MYC protein in Raji cells; assay: MYC degradation in control or TRIB3-deleted Raji cells with CHX or CHX plus MG132; type: cell-based, human; conditions: result in words
Method: Co-IP experiments were performed as described previously. Briefly, cells were collected and lysed for 30 min on ice. Soluble lysates were incubated with the indicated antibodies at 4 °C overnight, followed by incubation with Protein A/G Plus-Agarose (Santa Cruz Biotechnology, TX, USA) at 4 °C for 2 h. Soluble lysates were incubated with the indicated Anti-Myc magnetic beads (Bimake.com, B26302), Anti-Flag Affinity Gel (Bimake.com, B23102) or Anti-HA Affinity Gel (Bimake.com, B23302) at 4 °C overnight. Immunocomplexes were separated from the beads and then boiled for 10 min. The precipitated proteins were subjected to SDS-PAGE and blotted with specific antibodies. For immunoblotting assays, proteins were extracted from cells, spleens, or lymphoma tissues using RIPA buffer (Cell Signaling Technology, MA, USA). A BCA Protein Assay Kit was used to determine protein concentrations. Protein extracts were separated by SDS-PAGE, transferred onto PVDF membranes, and subjected to immunoblot analysis. Western blot images were captured by a Tanon 5200 chemiluminescent imaging system (Tanon, Shanghai, […]). Human lymphoma and benign LN paraffin tissue microarrays were purchased from US Biomax (LM482a).

MYC ubiquitination = assay: UBE3B-mediated MYC ubiquitination in HEK 293T cells with GSK3 inhibitor; type: cell-based; conditions: GSK3 inhibitor 10 µM for 12 hr, Co-IP, result in words
Method: HEK 293T cells were cotransfected with Myc-tagged MYC, HA-tagged or Flag-tagged ubiquitin, and other indicated plasmids. Cells were pretreated for 6 h with MG132 (Sigma Aldrich, C2211) at a concentration of 20 μM, and cell extracts were prepared using lysis buffer containing 1% TX-100 supplemented with 1 mg/ml iodoacetamide. We used a monoclonal anti-HA Affinity Gel (Bimake.com, B23302) or a ubiquitin antibody (CST, #3933S, 5 μg/IP) to purify ubiquitinylated proteins. Precipitates were analyzed by immunoblot with an anti-MYC antibody (CST, #9402 S, 1:1000).
Suppleme n t a ry F i g ur e 4 . U B E3 B I n d uc e d MYC Ubiquitina tion a t Lys ine 4 27 . Re la te d to Fig. 3 . […]
(d) The direct interaction of UBE3B and MYC in the purified system. […] HEK 293T cells were transfected with th e indicated mutants of MYC, and the ubiquitination of MYC was detected by Co -IP assays. […] HEK 293T cells were transfected with the indicated mutants of MYC, and the ubiquitination of MYC was detected by Co-IP assays. […] HEK 293T cells were transfected with the indicated mutants of MYC, and the degradation of MYC was detected by western blotting. […]
Raji cells were transfected with the indicated siRNAs and plasmids, and the ubiquitination of MYC was detected by Co-IP assays. […] Th e MY C protein was detected by Western blot analysis with GAPDH as a loading control. […] The MYC ubiquitination was detected by Co-IP assays . […]

TRIB3 and MYC = assay: SPR kinetic interaction of TRIB3 and MYC proteins with or without CM4; type: binding; conditions: in vitro, result in words
Method: as §1

| Compound | binding affinity for TRIB3 (TRIB3 protein) | ability to bind MAX (MAX protein) | effect on the binding of MYC and MAX (MAX and MYC) | further results |
| --- | --- | --- | --- | --- |
| ERQRRNELKRSFFALR [CM1, α-helical peptide derived from C terminus (HLH domain) of MYC] | only CM4 displayed a high binding affinity | showed a high ability to bind MAX | decreased the binding of MYC and MAX | – |
| CC/C(=C(\c1ccccc1)c1ccc(OCCN(C)C)cc1)c1ccccc1 [Tamoxifen, tamoxifen] | – | – | – | survival of lymphoma mice ([1]; tamoxifen 250 mg/kg i.p. (induces Trib3 deletion), result in words): none of the tamoxifen-treated Myc^Eμ Cre^ERT2Trib3^F/+ mice died within 180 days; Survival status at day 180 (0: alive, 1: dead) ([1]; tamoxifen 250 mg/kg, status of individual mice at Day 180, Fig 1k source data): 0 |
| QAEEQKLISEEDLLR [CM3, α-helical peptide derived from C terminus of MYC] | only CM4 displayed a high binding affinity | not | not | – |
| KVVILKKATAYILSV [CM2, α-helical peptide derived from C terminus of MYC] | only CM4 displayed a high binding affinity | not | not | – |
| CC(C)C[C@@H](C=O)NC(=O)[C@H](CC(C)C)NC(=O)[C@H](CC(C)C)NC(=O)OCc1ccccc1 [MG132] (Cbz-Leu-Leu-Leu-aldehyde) | – | – | – | effect on the shortened MYC half-life induced by TRIB3 knockdown [2]: reversed |
| Cc1c[nH]c(-c2cnc(NCCNc3ccc(C#N)cn3)nc2-c2ccc(Cl)cc2Cl)n1 [CT99021] | – | – | – | UBE3B-mediated MYC ubiquitination (MYC ubiquitination): decreased |
| LRKERQRLEKQLHK [scramble peptide of CM4, reference compound] | – | – | – | effect on the binding affinity of TRIB3 and MYC (TRIB3 and MYC): not |

Source: article PMC7725785, “TRIB3 promotes MYC-associated lymphoma development through suppression of UBE3B-mediated MYC degradation” (Nature Communications, 2020)
